What all share (format): cell-based
The subject of experiment [1] is isogenic LN229 gliobastoma cells. The experiment can be described thus: Anti-cancer assay against isogenic LN229 cell line set, maximum 200 μM (Example 46). To be noted: concentration up to 200 μM. On the procedure: Isogenic LN229 gliobastoma cells were maintained in Dulbecco's Modified Eagle Medium (DMEM) supplemented with 10% fetal bovine serum, 1% Penicillin/Streptomycin, and 0.1% Fungin. DAY 0: Cells were plated into sterile 96-well plates (Corning Costar 96-well) at a concentration of 500 cells/well using a Multichannel pipettor. Then, assay plates were incubated overnight in a 37° C. 5% CO2 incubator. DAY 1: Compounds were prepared as 50 mM stocks in dimethyl sulfoxide (DMSO) and stored protected from light at room temperature (RT) until use. Prior to compound addition, a two-fold serial dilution of compound stock solutions was performed in DMSO from 30 mM to 0.117 mM in a 96-well Master plate. Vehicle control wells contained DMSO. 97 μL of media was added to each well of a new 96-well plate (Daughter plate) and 3 μL of drug solution from Master plate was added to corresponding wells in the Daughter plate resulting in a 3× plate. Three replicate dilution curves of each compound were run on each assay plate. […]
Assay plates were incubated for 120 hours at 37° C. in a humidified 5% CO2 incubator. DAY 5: Following incubation, cells were fixed with 4% paraformaldehyde and stained with Hoechst dye for nuclei visualization. […] Images were acquired on a BioTek Cytation 5 Cell Imaging Multimode Reader and quantified using Cell Profiler image analysis software. […]

In experiment [2] the test system is LN229 gliobastoma cells MGMT−/MMR−. The experiment in a line: Anti-cancer assay, isogenic LN229 cells, nuclei count (Examples 43, 46). The conditions noted are these: Homo sapiens, read-out: MGMT− MMR− Activity. The text has this:
(§1) Cytotoxicity of the compounds may be measured in short-term cell viability assays against four isogenic LN229 glioblastoma cell lines engineered to be proficient or deficient in MGMT and/or MMR activity by using short hairpin RNAs (shRNAs) targeting MSH2. This approach allows for determination of the relationship between MGMT status, MMR status, and compound activity. LN229 cells are maintained in Dulbecco's Modified Eagle Medium (DMEM) supplemented with 10% fetal bovine serum, 1% Penicillin/Streptomycin, and 0.1% Fungin. DAY 0: Cells are plated into sterile 96-well plates (Corning Costar 96-well) at a concentration of 500 cells/well using a Multichannel pipettor. Then, assay plates are incubated overnight in a 37° C. 5% CO2 incubator. DAY 1: Compounds are prepared as 50 mM stocks in dimethyl sulfoxide (DMSO) and stored protected from light at room temperature (RT) until use. Prior to compound addition, a two-fold serial dilution of compound stock solutions is performed in DMSO from 30 mM to 0.117 mM in a 96-well Master plate. Vehicle control wells contain DMSO. 97 μL of media is added to each well of a new 96-well plate (Daughter plate) and 3 μL of drug solution from Master plate is added to corresponding wells in the Daughter plate resulting in a 3× plate. Three replicate dilution curves of each compound are run on each assay plate. The final concentration of compounds ranges from 300 μM to 1.171 μM (9-point, 2-fold dilution dose response curve), and the final DMSO concentration is 1%.
(§2) Assay plates are incubated for 120 hours at 37° C. in a humidified 5% CO2 incubator. DAY 5: Following incubation, cells are fixed with 4% paraformaldehyde and stained with Hoechst dye for nuclei visualization. Fixation, staining and washing is performed by using a Thermo Scientific Multidrop Combi. Images are acquired on a BioTek Cytation 5 Cell Imaging Multimode Reader and quantified using Cell Profiler image analysis software. Raw cell count data for test compounds are normalized to percent viability relative to the DMSO vehicle control.
(§3) Isogenic LN229 gliobastoma cells were maintained in Dulbecco's Modified Eagle Medium (DMEM) supplemented with 10% fetal bovine serum, 1% Penicillin/Streptomycin, and 0.1% Fungin. DAY 0: Cells were plated into sterile 96-well plates (Corning Costar 96-well) at a concentration of 500 cells/well using a Multichannel pipettor. Then, assay plates were incubated overnight in a 37° C. 5% CO2 incubator. DAY 1: Compounds were prepared as 50 mM stocks in dimethyl sulfoxide (DMSO) and stored protected from light at room temperature (RT) until use. Prior to compound addition, a two-fold serial dilution of compound stock solutions was performed in DMSO from 30 mM to 0.117 mM in a 96-well Master plate. Vehicle control wells contained DMSO. 97 μL of media was added to each well of a new 96-well plate (Daughter plate) and 3 μL of drug solution from Master plate was added to corresponding wells in the Daughter plate resulting in a 3× plate. Three replicate dilution curves of each compound were run on each assay plate. The final concentration of compounds ranged from 300 μM to 1.171 μM (9-point, 2-fold dilution dose response curve), and the final DMSO concentration was 1%.
(§4) Assay plates were incubated for 120 hours at 37° C. in a humidified 5% CO2 incubator. DAY 5: Following incubation, cells were fixed with 4% paraformaldehyde and stained with Hoechst dye for nuclei visualization. Fixation, staining and washing was performed by using a Thermo Scientific Multidrop Combi. Images were acquired on a BioTek Cytation 5 Cell Imaging Multimode Reader and quantified using Cell Profiler image analysis software. Raw cell count data for test compounds were normalized to percent viability relative to the DMSO vehicle control. […]

In experiment [3] the test system is LN229 gliobastoma cells MGMT−/MMR+. The description is as above. The conditions noted are these: Homo sapiens, read-out: MGMT− MMR+ Activity.
Description: as §1, §2, §3, §4

Experiment [4] concerns LN229 gliobastoma cells MGMT+/MMR−. The experiment in a line: Anti-cancer assay, isogenic LN229 cells, nuclei count (Example 43). The conditions noted are these: Homo sapiens, read-out: MGMT+ MMR− Activity.
Description: as §1, §2, §3
(§5) Assay plates were incubated for 120 hours at 37° C. in a humidified 5% CO2 incubator. DAY 5: Following incubation, cells were fixed with 4% paraformaldehyde and stained with Hoechst dye for nuclei visualization. Fixation, staining and washing was performed by using a Thermo Scientific Multidrop Combi. Images were acquired on a BioTek Cytation 5 Cell Imaging Multimode Reader and quantified using Cell Profiler image analysis software. Raw cell count data for test compounds were normalized to percent viability relative to the DMSO vehicle control.

Experiment [5] concerns LN229 gliobastoma cells MGMT+/MMR+. Described as above. To be noted: Homo sapiens, read-out: MGMT+ MMR+ Activity.
Description: as §1, §2, §3, §5

[6] abbreviates: LN-229, LN229 MGMT−/MMR−, 120 hours.
The mark [7] stands for this setting: LN-229, LN229 MGMT−/MMR+, 120 hours.
Where [8] appears, read: LN-229, LN229 MGMT+/MMR−, 120 hours.
Where [9] appears, read: LN-229, LN229 MGMT+/MMR+, 120 hours.

These results are taken from patent US20250066371A1, “FLUOROALKOXYALKYLENE-DIHYDROIMIDAZO[5,1-D]TETRAZINONE COMPOUNDS AND RELATED COMPOUNDS AND THEIR USE IN TREATING MEDICAL CONDITIONS” (priority 2023, published 2025).

Where two headings read alike, the source gives them in different places.

Take `COCCn1nnc2c(C(N)=O)ncn2c1=O` [Compound A2]: in experiment [1], the “anti-cancer activity against LN229 isogenic cell line set” value was “no detectable anti-cancer activity”.

Turning to `O=c1n(CCOC(F)(F)F)nnc2c(-c3ncc(-c4ccccc4)o3)ncn12` [II-2, 8-(5-Phenyloxazol-2-yl)-3-(2-(trifluoromethoxy)ethyl)imidazo[5,1-d][1,2,3,5]tetrazin-4(3H)-one], the IC50 in experiment [2] (setting [6]) is 20 to 50 µM; in experiment [3] (setting [7]) it was 50 to 100 µM; in experiment [4] (setting [8]), 20 to 50 µM; in experiment [5] (setting [9]) it was less than 20 µM.

As for `[2H]C([2H])(OC(F)(F)F)C([2H])([2H])n1nnc2c(C(N)=O)ncn2c1=O` [Compound I-29, 4-Oxo-3-(2-(trifluoromethoxy)ethyl-1,1,2,2-d4)-3,4-dihydroimidazo[5,1-d][1,2,3,5]tetrazine-8-carboxamide], the IC50 was less than 20 µM in experiment [2] (setting [6]), 20 to 50 µM in experiment [3] (setting [7]), greater than 100 µM in experiment [4] (setting [8]) and greater than 100 µM in experiment [5] (setting [9]).

With `Cc1cnc(-c2ncn3c(=O)n(CCOC(F)(F)F)nnc23)s1` [II-6, 8-(5-Methylthiazol-2-yl)-3-(2-(trifluoromethoxy)ethyl)imidazo[5,1-d][1,2,3,5]tetrazin-4(3H)-one], the IC50 is less than 20 µM in experiment [2] (setting [6]), 20 to 50 µM in experiment [3] (setting [7]), less than 20 µM in experiment [4] (setting [8]) and less than 20 µM in experiment [5] (setting [9]).

With `O=C(c1ncn2c(=O)n(CCOC(F)(F)F)nnc12)N1CCCC1` [Compound I-7, 8-(Pyrrolidine-1-carbonyl)-3-(2-(trifluoromethoxy)ethyl)imidazo[5,1-d][1,2,3,5]tetrazin-4(3H)-one], the IC50 was 20 to 50 µM in experiment [2] (setting [6]), 20 to 50 µM in experiment [3] (setting [7]), 50 to 100 µM in experiment [4] (setting [8]) and 20 to 50 µM in experiment [5] (setting [9]).

Consider `Cc1cnc(-c2ncn3c(=O)n(CCOC(F)(F)F)nnc23)o1` [II-3, 8-(5-Methyloxazol-2-yl)-3-(2-(trifluoromethoxy)ethyl) imidazo[5,1-d][1,2,3,5]tetrazin-4(3H)-one], for which the IC50 in experiment [2] (setting [6]), in experiment [3] (setting [7]), in experiment [4] (setting [8]) and in experiment [5] (setting [9]) was 20 to 50 µM throughout.

Consider `CN(C)CCN(C)C(=O)c1ncn2c(=O)n(CCOC(F)(F)F)nnc12` [Compound I-11, N-(2-(Dimethylamino)ethyl)-N-methyl-4-oxo-3-(2-(trifluoromethoxy)ethyl)-3,4-dihydroimidazo[5,1-d][1,2,3,5]tetrazine-8-carboxamide], for which the IC50 in experiment [2] (LN-229, 120 h) is less than 20 µM; in experiment [3] (LN-229, 120 h), less than 20 µM; in experiment [4] (LN-229, 120 h), 50 to 100 µM; in experiment [5] (LN-229, 120 h), 50 to 100 µM.

For `O=NN(CCOC(F)(F)F)C(=O)NC1CCCCC1` [IV-1, 3-Cyclohexyl-1-nitroso-1-(2-(trifluoromethoxy)ethyl)urea], the IC50 in experiment [2] (LN-229, 120 h) fell in the range of 20 to 50 µM; in experiment [3] (LN-229, 120 h) it was 20 to 50 µM; in experiment [4] (LN-229, 120 h), 20 to 50 µM; in experiment [5] (LN-229, 120 h) it was 20 to 50 µM.

For `CN(C)C(=O)c1ncn2c(=O)n(CCOC(F)(F)F)nnc12` [Compound I-4, N,N-Dimethyl-4-oxo-3-(2-(trifluoromethoxy)ethyl)-3,4-dihydroimidazo[5,1-d][1,2,3,5]tetrazine-8-carboxamide], the IC50 in experiment [2] (setting [6]) fell in the range of 20 to 50 µM; in experiment [3] (setting [7]) it was 20 to 50 µM; in experiment [4] (setting [8]) it was 20 to 50 µM; in experiment [5] (setting [9]), 50 to 100 µM.
